Laboratory results: paper PMC6934184, “Selective DNA-PKcs inhibition extends the therapeutic index of localized radiotherapy and chemotherapy” (The Journal of Clinical Investigation, 2019)

Molecular target: T1, CDC7/DBF4 (Homo sapiens, UniProt O00311)
T1 construct: purchased Thermo Fisher Scientific (Life Technologies) SelectScreen
Assay: SelectScreen LanthaScreen
Type: binding
Details: read-out: % displacement
In short: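 SelectScreen broad panel; activity (Z'LYTE, Adapta) plus binding formats. ATP: Km app for CSF1R Z'LYTE; 10 for CAMK1 Adapta. Readout = % per kinase.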

T1 sequence (O00311 whole entry): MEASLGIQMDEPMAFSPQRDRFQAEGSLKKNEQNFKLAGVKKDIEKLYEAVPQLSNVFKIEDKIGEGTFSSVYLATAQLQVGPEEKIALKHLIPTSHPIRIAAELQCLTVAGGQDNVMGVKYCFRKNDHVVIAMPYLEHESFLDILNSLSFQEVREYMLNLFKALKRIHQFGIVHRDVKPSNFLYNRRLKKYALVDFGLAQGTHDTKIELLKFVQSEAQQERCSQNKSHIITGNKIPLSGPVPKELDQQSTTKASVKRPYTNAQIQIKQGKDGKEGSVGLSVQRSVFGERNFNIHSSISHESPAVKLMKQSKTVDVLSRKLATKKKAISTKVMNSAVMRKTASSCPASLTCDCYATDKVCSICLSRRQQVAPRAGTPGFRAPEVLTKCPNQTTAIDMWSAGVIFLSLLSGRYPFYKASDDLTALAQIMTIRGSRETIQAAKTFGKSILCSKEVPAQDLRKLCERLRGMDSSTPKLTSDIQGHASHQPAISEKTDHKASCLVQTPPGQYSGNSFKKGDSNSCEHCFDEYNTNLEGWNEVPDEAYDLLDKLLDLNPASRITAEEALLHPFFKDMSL
T1 sequence (Q9UBU7 whole entry partner): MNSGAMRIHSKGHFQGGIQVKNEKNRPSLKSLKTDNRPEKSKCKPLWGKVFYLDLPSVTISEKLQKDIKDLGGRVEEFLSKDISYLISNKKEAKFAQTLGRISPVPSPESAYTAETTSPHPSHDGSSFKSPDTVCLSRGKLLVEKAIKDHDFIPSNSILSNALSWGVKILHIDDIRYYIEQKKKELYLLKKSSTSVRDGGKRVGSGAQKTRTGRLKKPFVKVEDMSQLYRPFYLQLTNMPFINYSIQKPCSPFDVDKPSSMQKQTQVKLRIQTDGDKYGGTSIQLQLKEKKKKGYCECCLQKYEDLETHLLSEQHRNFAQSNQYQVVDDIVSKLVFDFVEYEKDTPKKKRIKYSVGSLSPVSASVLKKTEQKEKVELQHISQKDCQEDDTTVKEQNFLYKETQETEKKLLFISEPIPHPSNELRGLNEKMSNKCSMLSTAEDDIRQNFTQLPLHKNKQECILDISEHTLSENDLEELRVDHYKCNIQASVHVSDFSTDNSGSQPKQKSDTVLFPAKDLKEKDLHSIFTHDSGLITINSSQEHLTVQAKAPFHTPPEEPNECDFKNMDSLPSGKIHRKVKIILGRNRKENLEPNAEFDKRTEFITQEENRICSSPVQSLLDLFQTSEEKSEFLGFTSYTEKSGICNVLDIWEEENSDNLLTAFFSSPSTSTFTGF

With `CN(C(=O)CN1CCOCC1)c1ccc2sc3c(-c4cccc5c(=O)cc(N6CC7CCC(C6)O7)oc45)cccc3c2c1` [NU5455] the inhibition at 1 µM was 6%.
